What follows are compounds tested on HCC1937 (assay: normalised response (% of control), CellTox Green; higher = less cell death (100 = DMSO, 0 = benzethonium chloride kill control)). Details: incubation time: 72 h.
Procedure, shortened: (§1)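 Each entry is the normalised signal at a single concentration within a series. The series comprised 5 concentrations in 10-fold steps over a compound-specific 10,000-fold range, placed in 384-well plates into which breast cancer cell lines were seeded as 20 µl suspension and incubated 72 h. CellTox Green (485/520 nm) fluorescence and then CellTiter-Glo luminescence were read, with signals normalised per plate to 0.1 % DMSO (100) and a positive kill control (0).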
Compound `CCN(CC)CCCC(C)Nc1ccnc2cc(Cl)ccc12` (centres undefined) [Chloroquine] (10000 nM) has a normalised response of 91.5%. With `O=C(O)CNC(=O)c1c(O)c2ccccc2n(Cc2ccccc2)c1=O` [IOX-2] (5000 nM) the normalised response was 114%. Work on `CN(C)C(=N)NC(=N)N` [Metformin] (10000 nM) yielded a normalised response of 66.8%. `CN(Cc1cnc2nc(N)nc(N)c2n1)c1ccc(C(=O)N[C@@H](CCC(=O)O)C(=O)O)cc1` [Methotrexate] (5000 nM) was tested, and the normalised response was 110%. `O=[N+]([O-])c1ccc2c(c1)S(=O)(=O)C=C2` [Stattic] (5000 nM) was tested, and the normalised response was 28.6%. Compound `CC(C)n1cnc2c(NCCc3ccc(O)cc3)nc(-c3csc4ccccc34)nc21` [StemRegenin 1] (1000 nM) has a normalised response of 89.9%.

These compounds were tested on HDQ-P1 in the same assay as above. Details: incubation time: 72 h.
Procedure, shortened: as §1
Compound `CCn1c(C(=O)N(C2CC2)C2CC2)cc2c3c(ncn3C)c(Nc3cc(C)n(C)n3)nc21` (1000 nM) has a normalised response of 96.2%. For `CCN(CC)CCCC(C)Nc1ccnc2cc(Cl)ccc12` (centres undefined) [Chloroquine] (10000 nM), the normalised response was 81.6%. Work on `O=C(O)CNC(=O)c1c(O)c2ccccc2n(Cc2ccccc2)c1=O` [IOX-2] (5000 nM) yielded a normalised response of 105%. `CN(C)C(=N)NC(=N)N` [Metformin] (10000 nM) was tested, and the normalised response was 101%. Work on `CN(Cc1cnc2nc(N)nc(N)c2n1)c1ccc(C(=O)N[C@@H](CCC(=O)O)C(=O)O)cc1` [Methotrexate] (5000 nM) yielded a normalised response of 107%. In the case of `O=[N+]([O-])c1ccc2c(c1)S(=O)(=O)C=C2` [Stattic] (5000 nM), the normalised response is reported as 106%. Compound `CC(C)n1cnc2c(NCCc3ccc(O)cc3)nc(-c3csc4ccccc34)nc21` [StemRegenin 1] (1000 nM) has a normalised response of 102%.

The compounds below were run on Hs578T in the same assay as above. Details: incubation time: 72 h.
Procedure, shortened: as §1
`CCn1c(C(=O)N(C2CC2)C2CC2)cc2c3c(ncn3C)c(Nc3cc(C)n(C)n3)nc21` (1000 nM) was tested, and the normalised response was 93%. `CCN(CC)CCCC(C)Nc1ccnc2cc(Cl)ccc12` (centres undefined) [Chloroquine] (10000 nM) was tested, and the normalised response was 94.3%. `O=C(O)CNC(=O)c1c(O)c2ccccc2n(Cc2ccccc2)c1=O` [IOX-2] (5000 nM) was tested, and the normalised response was 58.2%. Work on `CN(C)C(=N)NC(=N)N` [Metformin] (10000 nM) yielded a normalised response of 83.7%. `CN(Cc1cnc2nc(N)nc(N)c2n1)c1ccc(C(=O)N[C@@H](CCC(=O)O)C(=O)O)cc1` [Methotrexate] (5000 nM) was tested, and the normalised response was 102%. In the case of `O=[N+]([O-])c1ccc2c(c1)S(=O)(=O)C=C2` [Stattic] (5000 nM), the normalised response is reported as -141%. `CC(C)n1cnc2c(NCCc3ccc(O)cc3)nc(-c3csc4ccccc34)nc21` [StemRegenin 1] (1000 nM) was tested, and the normalised response was 88.4%.

What follows are compounds tested on MCF-10A in the same assay as above. Details: incubation time: 72 h.
Procedure, shortened: as §1
`CCn1c(C(=O)N(C2CC2)C2CC2)cc2c3c(ncn3C)c(Nc3cc(C)n(C)n3)nc21` (1000 nM) showed a normalised response of 117%. `CCN(CC)CCCC(C)Nc1ccnc2cc(Cl)ccc12` (centres undefined) [Chloroquine] (10000 nM) gave a normalised response of 95.2%. `O=C(O)CNC(=O)c1c(O)c2ccccc2n(Cc2ccccc2)c1=O` [IOX-2] (5000 nM) showed a normalised response of 84.6%. `CN(C)C(=N)NC(=N)N` [Metformin] (10000 nM) was tested, and the normalised response was 103%. `CN(Cc1cnc2nc(N)nc(N)c2n1)c1ccc(C(=O)N[C@@H](CCC(=O)O)C(=O)O)cc1` [Methotrexate] (5000 nM) was tested, and the normalised response was 107%. For `CC(C)n1cnc2c(NCCc3ccc(O)cc3)nc(-c3csc4ccccc34)nc21` [StemRegenin 1] (1000 nM), the normalised response was 83.1%.

The compounds below were run on MDA-MB-231 in the same assay as above. Details: incubation time: 72 h.
Procedure, shortened: as §1
In the case of `CCn1c(C(=O)N(C2CC2)C2CC2)cc2c3c(ncn3C)c(Nc3cc(C)n(C)n3)nc21` (1000 nM), the normalised response is reported as 102%. `CCN(CC)CCCC(C)Nc1ccnc2cc(Cl)ccc12` (centres undefined) [Chloroquine] (10000 nM) gave a normalised response of 50.4%. Compound `O=C(O)CNC(=O)c1c(O)c2ccccc2n(Cc2ccccc2)c1=O` [IOX-2] (5000 nM) has a normalised response of 66.4%. Work on `CN(C)C(=N)NC(=N)N` [Metformin] (10000 nM) yielded a normalised response of 90.4%. Work on `CN(Cc1cnc2nc(N)nc(N)c2n1)c1ccc(C(=O)N[C@@H](CCC(=O)O)C(=O)O)cc1` [Methotrexate] (5000 nM) yielded a normalised response of 116%. `O=[N+]([O-])c1ccc2c(c1)S(=O)(=O)C=C2` [Stattic] (5000 nM) gave a normalised response of 51.2%. Compound `CC(C)n1cnc2c(NCCc3ccc(O)cc3)nc(-c3csc4ccccc34)nc21` [StemRegenin 1] (1000 nM) has a normalised response of 114%.

The compounds below were run on MDA-MB-436 in the same assay as above. Details: incubation time: 72 h.
Procedure, shortened: as §1
Compound `CCn1c(C(=O)N(C2CC2)C2CC2)cc2c3c(ncn3C)c(Nc3cc(C)n(C)n3)nc21` (1000 nM) has a normalised response of 98.2%. In the case of `CCN(CC)CCCC(C)Nc1ccnc2cc(Cl)ccc12` (centres undefined) [Chloroquine] (10000 nM), the normalised response is reported as 59.4%. Work on `O=C(O)CNC(=O)c1c(O)c2ccccc2n(Cc2ccccc2)c1=O` [IOX-2] (5000 nM) yielded a normalised response of 93.2%. `CN(C)C(=N)NC(=N)N` [Metformin] (10000 nM) showed a normalised response of 55.5%. `CN(Cc1cnc2nc(N)nc(N)c2n1)c1ccc(C(=O)N[C@@H](CCC(=O)O)C(=O)O)cc1` [Methotrexate] (5000 nM) was tested, and the normalised response was 97.6%. `O=[N+]([O-])c1ccc2c(c1)S(=O)(=O)C=C2` [Stattic] (5000 nM) showed a normalised response of 106%. `CC(C)n1cnc2c(NCCc3ccc(O)cc3)nc(-c3csc4ccccc34)nc21` [StemRegenin 1] (1000 nM) showed a normalised response of 110%.

What follows are compounds tested on MDA-MB-453 in the same assay as above. Details: incubation time: 72 h.
Procedure, shortened: as §1
In the case of `CCn1c(C(=O)N(C2CC2)C2CC2)cc2c3c(ncn3C)c(Nc3cc(C)n(C)n3)nc21` (1000 nM), the normalised response is reported as 104%. With `CCN(CC)CCCC(C)Nc1ccnc2cc(Cl)ccc12` (centres undefined) [Chloroquine] (10000 nM) the normalised response was 62.1%. Work on `O=C(O)CNC(=O)c1c(O)c2ccccc2n(Cc2ccccc2)c1=O` [IOX-2] (5000 nM) yielded a normalised response of 110%. For `CN(C)C(=N)NC(=N)N` [Metformin] (10000 nM), the normalised response was 80.9%. `CN(Cc1cnc2nc(N)nc(N)c2n1)c1ccc(C(=O)N[C@@H](CCC(=O)O)C(=O)O)cc1` [Methotrexate] (5000 nM) showed a normalised response of 107%. Compound `O=[N+]([O-])c1ccc2c(c1)S(=O)(=O)C=C2` [Stattic] (5000 nM) has a normalised response of 108%. `CC(C)n1cnc2c(NCCc3ccc(O)cc3)nc(-c3csc4ccccc34)nc21` [StemRegenin 1] (1000 nM) showed a normalised response of 110%.

These compounds were tested on MDA-MB-468 in the same assay as above. Details: incubation time: 72 h.
Procedure, shortened: as §1
`CCn1c(C(=O)N(C2CC2)C2CC2)cc2c3c(ncn3C)c(Nc3cc(C)n(C)n3)nc21` (1000 nM) gave a normalised response of 95.6%. In the case of `CCN(CC)CCCC(C)Nc1ccnc2cc(Cl)ccc12` (centres undefined) [Chloroquine] (10000 nM), the normalised response is reported as 119%. For `O=C(O)CNC(=O)c1c(O)c2ccccc2n(Cc2ccccc2)c1=O` [IOX-2] (5000 nM), the normalised response was 57.3%. `CN(C)C(=N)NC(=N)N` [Metformin] (10000 nM) was tested, and the normalised response was 79.5%. In the case of `CN(Cc1cnc2nc(N)nc(N)c2n1)c1ccc(C(=O)N[C@@H](CCC(=O)O)C(=O)O)cc1` [Methotrexate] (5000 nM), the normalised response is reported as 129%. With `O=[N+]([O-])c1ccc2c(c1)S(=O)(=O)C=C2` [Stattic] (5000 nM) the normalised response was -175%. `CC(C)n1cnc2c(NCCc3ccc(O)cc3)nc(-c3csc4ccccc34)nc21` [StemRegenin 1] (1000 nM) was tested, and the normalised response was 137%.

Each compound was assayed on MFM-223 in the same assay as above. Details: incubation time: 72 h.
Procedure, shortened: as §1
In the case of `CCn1c(C(=O)N(C2CC2)C2CC2)cc2c3c(ncn3C)c(Nc3cc(C)n(C)n3)nc21` (1000 nM), the normalised response is reported as 98.5%. `CCN(CC)CCCC(C)Nc1ccnc2cc(Cl)ccc12` (centres undefined) [Chloroquine] (10000 nM) showed a normalised response of 67.7%. Compound `CN(C)C(=N)NC(=N)N` [Metformin] (10000 nM) has a normalised response of 99.2%. `CN(Cc1cnc2nc(N)nc(N)c2n1)c1ccc(C(=O)N[C@@H](CCC(=O)O)C(=O)O)cc1` [Methotrexate] (5000 nM) gave a normalised response of 97.5%. `O=[N+]([O-])c1ccc2c(c1)S(=O)(=O)C=C2` [Stattic] (5000 nM) was tested, and the normalised response was 4.35%. `CC(C)n1cnc2c(NCCc3ccc(O)cc3)nc(-c3csc4ccccc34)nc21` [StemRegenin 1] (1000 nM) was tested, and the normalised response was 81.1%.

These compounds were tested on BT-474 (assay: normalised response (% of control), CellTiter-Glo; higher = more viable cells (100 = DMSO, 0 = benzethonium chloride kill control)). Details: incubation time: 72 h.
Procedure, shortened: as §1
`CCn1c(C(=O)N(C2CC2)C2CC2)cc2c3c(ncn3C)c(Nc3cc(C)n(C)n3)nc21` (1000 nM) was tested, and the normalised response was 92.7%. `CCN(CC)CCCC(C)Nc1ccnc2cc(Cl)ccc12` (centres undefined) [Chloroquine] (10000 nM) showed a normalised response of 72.1%. Work on `O=C(O)CNC(=O)c1c(O)c2ccccc2n(Cc2ccccc2)c1=O` [IOX-2] (5000 nM) yielded a normalised response of 95.7%. With `CN(C)C(=N)NC(=N)N` [Metformin] (10000 nM) the normalised response was 91%.

Source: the supplement of paper PMC4862054
